Measurements from ChEMBL document CHEMBL3856280, “Targeting the HSP60/10 chaperonin systems of Trypanosoma brucei as a strategy for treating African sleeping sickness” (Bioorg Med Chem Lett, 2016).

Key:
[1] = system: Trypanosoma brucei brucei; experiment: Antitrypanosomal activity against Trypanosoma brucei brucei Lister 427 VSG 221 [TetR T7RNAP] transgenic bloodstream forms assessed as reduction in cell viability after 48 hrs by alamar blue assay; assay type: functional; settings: Lister 427 VSG 221, 48 h
[2] = biological target: T1, E. coli GroEL/ES (Escherichia coli, UniProt P0A6F5); experiment: Inhibition of Escherichia coli GroEL/GroES expressed in Escherichia coli DH5alpha/BL21 (DE3) assessed as inhibition of denatured MDH refolding preincubated for 10 mins followed by ATP addition measured after 20 to 40 mins by fluorescence based assay
[3] = biological target: T2, HSP60/HSP10 (Homo sapiens, UniProt P10809); experiment: Inhibition of human mitochondrial HSP60/HSP10 expressed in Escherichia coli DH5alpha/BL21 (DE3) assessed as inhibition of denatured MDH refolding preincubated for 10 mins followed by ATP addition measured after 40 to 60 mins by fluorescence based assay
[4] = biological target: T1, E. coli GroEL/ES; experiment: Inhibition of Escherichia coli GroEL/GroES-ATPase activity expressed in Escherichia coli DH5alpha/BL21 (DE3) assessed as inhibition of denatured MDH refolding preincubated for 10 mins followed by ATP addition measured after 20 to 40 mins by malachite green dye based fluorescence assay
[5] = biological target: T2, HSP60/HSP10; experiment: Inhibition of human mitochondrial HSP60/HSP10-ATPase activity expressed in Escherichia coli DH5alpha/BL21 (DE3) assessed as inhibition of denatured MDH refolding preincubated for 10 mins followed by ATP addition measured after 40 to 60 mins by malachite green dye based fluorescence assay
[6] = Cytotoxicity against human THLE3 cells assessed as reduction in cell viability after 48 hrs by alamar blue assay; assay type: toxicity, cell-based
[7] = Cytotoxicity against HEK293 cells assessed as reduction in cell viability after 48 hrs by alamar blue assay; assay type: toxicity, cell-based; settings: human
[8] = Inhibition of pig heart native MDH reporter reaction after 20 to 40 mins by fluorescence based assay; set-up: species or system Sus scrofa

T2 sequence (P10809 whole entry): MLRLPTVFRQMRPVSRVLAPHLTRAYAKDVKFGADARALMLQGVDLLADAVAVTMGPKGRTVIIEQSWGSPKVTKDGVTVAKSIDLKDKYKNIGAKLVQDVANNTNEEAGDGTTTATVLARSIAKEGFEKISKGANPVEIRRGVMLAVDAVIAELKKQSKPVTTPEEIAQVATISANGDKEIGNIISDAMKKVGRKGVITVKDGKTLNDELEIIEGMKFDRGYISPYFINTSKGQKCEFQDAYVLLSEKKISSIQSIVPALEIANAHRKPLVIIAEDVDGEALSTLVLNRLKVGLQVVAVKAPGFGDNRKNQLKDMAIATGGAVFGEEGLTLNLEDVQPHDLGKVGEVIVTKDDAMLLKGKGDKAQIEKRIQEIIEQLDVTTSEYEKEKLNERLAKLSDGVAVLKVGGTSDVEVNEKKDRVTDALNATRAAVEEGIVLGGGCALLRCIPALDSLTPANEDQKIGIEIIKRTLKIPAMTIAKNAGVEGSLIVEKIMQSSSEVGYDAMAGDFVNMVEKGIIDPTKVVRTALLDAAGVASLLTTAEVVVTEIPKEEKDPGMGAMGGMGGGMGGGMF
T2 sequence (P61604 whole entry, further chain): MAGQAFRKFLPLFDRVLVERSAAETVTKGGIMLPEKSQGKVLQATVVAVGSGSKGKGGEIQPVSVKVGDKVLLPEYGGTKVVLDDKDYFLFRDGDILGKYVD
T1 sequence (P0A6F5 whole entry, looked up): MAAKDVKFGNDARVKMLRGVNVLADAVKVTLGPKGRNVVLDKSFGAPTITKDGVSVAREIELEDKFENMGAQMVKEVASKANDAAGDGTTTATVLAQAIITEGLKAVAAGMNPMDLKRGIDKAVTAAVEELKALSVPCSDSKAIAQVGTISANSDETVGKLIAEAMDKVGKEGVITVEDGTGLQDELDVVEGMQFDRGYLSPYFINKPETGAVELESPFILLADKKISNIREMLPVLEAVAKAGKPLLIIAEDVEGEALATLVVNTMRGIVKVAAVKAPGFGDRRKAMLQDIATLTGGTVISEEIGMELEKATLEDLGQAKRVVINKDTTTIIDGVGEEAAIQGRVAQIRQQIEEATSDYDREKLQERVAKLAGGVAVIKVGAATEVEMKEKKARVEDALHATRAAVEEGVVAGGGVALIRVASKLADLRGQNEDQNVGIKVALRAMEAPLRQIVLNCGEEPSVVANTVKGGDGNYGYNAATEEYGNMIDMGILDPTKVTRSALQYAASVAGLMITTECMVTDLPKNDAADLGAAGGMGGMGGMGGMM

COc1ccc(S(=O)(=O)Nc2ccc(-c3nc4cc(NS(=O)(=O)c5ccc(OC)cc5)ccc4o3)cc2)cc1
EC50 [1]: 3.3 µM | IC50 [2]: 36 µM | IC50 [3]: > 100 µM | IC50 [4]: 84 µM | IC50 [5]: > 250 µM | EC50 at 48 h [6]: > 100 µM | EC50 at 48 h [7]: 88 µM | IC50 [8]: > 63 µM

O=S(=O)(Nc1ccc(-c2nc3cc(NS(=O)(=O)c4cccc5nsnc45)ccc3o2)cc1)c1cccc2nsnc12
EC50 [1]: > 42 µM | IC50 [2]: 22 µM | IC50 [3]: 98 µM | IC50 [4]: 127 µM | IC50 [5]: 152 µM | EC50 at 48 h [6]: > 100 µM | EC50 at 48 h [7]: 52 µM | IC50 [8]: > 63 µM

O=S(=O)(Nc1ccc(-c2nc3cc(NS(=O)(=O)c4ccccc4Cl)ccc3o2)cc1)c1ccccc1Cl
EC50 [1]: 5.9 µM | IC50 [2]: 46 µM | IC50 [3]: > 100 µM | IC50 [4]: 131 µM | IC50 [5]: > 250 µM | EC50 at 48 h [6]: 24 µM | EC50 at 48 h [7]: 75 µM | IC50 [8]: > 63 µM

O=S(=O)(Nc1ccc(-c2nc3cc(NS(=O)(=O)c4ccc(Cl)cc4)ccc3o2)cc1)c1ccc(Cl)cc1
EC50 [1]: 3.2 µM | IC50 [2]: 23 µM | IC50 [3]: 96 µM | IC50 [4]: 35 µM | IC50 [5]: > 250 µM | EC50 at 48 h [6]: 18 µM | EC50 at 48 h [7]: 13 µM | IC50 [8]: > 63 µM

Nc1ccc(S(=O)(=O)Nc2ccc(-c3nc4cc(NS(=O)(=O)c5ccc(N)cc5)ccc4o3)cc2)cc1
EC50 [1]: 22 µM | IC50 [2]: 1.4 µM | IC50 [3]: 68 µM | IC50 [4]: 1.7 µM | IC50 [5]: 224 µM | EC50 at 48 h [6]: 38 µM | EC50 at 48 h [7]: 59 µM | IC50 [8]: > 63 µM

N#Cc1ccc(S(=O)(=O)Nc2ccc(-c3nc4cc(NS(=O)(=O)c5ccc(C#N)cc5)ccc4o3)cc2)cc1
EC50 [1]: 16 µM | IC50 [2]: 37 µM | IC50 [3]: 64 µM | IC50 [4]: > 250 µM | IC50 [5]: > 250 µM | EC50 at 48 h [6]: 79 µM | EC50 at 48 h [7]: 45 µM | IC50 [8]: > 63 µM

N#Cc1cccc(S(=O)(=O)Nc2ccc(-c3nc4cc(NS(=O)(=O)c5cccc(C#N)c5)ccc4o3)cc2)c1
EC50 [1]: 39 µM | IC50 [2]: 7.6 µM | IC50 [3]: 91 µM | IC50 [4]: 4.1 µM | IC50 [5]: > 250 µM | EC50 at 48 h [6]: 91 µM | EC50 at 48 h [7]: 45 µM | IC50 [8]: > 63 µM

O=S(=O)(Nc1ccc(-c2nc3cc(NS(=O)(=O)c4ccccc4O)ccc3o2)cc1)c1ccccc1O
EC50 [1]: 5 µM | IC50 [2]: 7.5 µM | IC50 [3]: 13 µM | IC50 [4]: 36 µM | IC50 [5]: 33 µM | EC50 at 48 h [6]: 19 µM | EC50 at 48 h [7]: 18 µM

O=C(O)c1ccc(S(=O)(=O)Nc2ccc(-c3nc4cc(NS(=O)(=O)c5ccc(C(=O)O)cc5)ccc4o3)cc2)cc1
EC50 [1]: > 42 µM | IC50 [2]: 83 µM | IC50 [3]: > 100 µM | IC50 [4]: > 250 µM | IC50 [5]: > 250 µM | EC50 at 48 h [6]: > 100 µM | EC50 at 48 h [7]: > 100 µM | IC50 [8]: > 63 µM

O=S(=O)(Nc1ccc(-c2nc3cc(NS(=O)(=O)C(F)(F)F)ccc3o2)cc1)C(F)(F)F
EC50 [1]: > 42 µM | IC50 [2]: 40 µM | IC50 [3]: 97 µM | IC50 [4]: > 250 µM | IC50 [5]: > 250 µM | EC50 at 48 h [6]: > 100 µM | EC50 at 48 h [7]: > 100 µM | IC50 [8]: > 63 µM

O=c1ccc2cc(S(=O)(=O)Nc3ccc(-c4nc5cc(NS(=O)(=O)c6ccc7oc(=O)ccc7c6)ccc5o4)cc3)ccc2o1
EC50 [1]: > 42 µM | IC50 [2]: 18 µM | IC50 [3]: 70 µM | IC50 [4]: 83 µM | IC50 [5]: 201 µM | EC50 at 48 h [6]: > 100 µM | EC50 at 48 h [7]: > 100 µM | IC50 [8]: > 63 µM

COC(=O)c1ccc(S(=O)(=O)Nc2ccc(-c3nc4cc(NS(=O)(=O)c5ccc(C(=O)OC)cc5)ccc4o3)cc2)cc1
EC50 [1]: 23 µM | IC50 [2]: 26 µM | IC50 [3]: 87 µM | IC50 [4]: 91 µM | IC50 [5]: > 250 µM | EC50 at 48 h [6]: > 100 µM | EC50 at 48 h [7]: > 100 µM | IC50 [8]: > 63 µM

O=S(=O)(Nc1ccc(-c2nc3cc(NS(=O)(=O)c4cccc(Br)c4)ccc3o2)cc1)c1cccc(Br)c1
EC50 [1]: 8 µM | IC50 [2]: 23 µM | IC50 [3]: > 100 µM | IC50 [4]: 45 µM | IC50 [5]: > 250 µM | EC50 at 48 h [6]: 21 µM | EC50 at 48 h [7]: 25 µM | IC50 [8]: > 63 µM

Nc1ccccc1S(=O)(=O)Nc1ccc(-c2nc3cc(NS(=O)(=O)c4ccccc4N)ccc3o2)cc1
EC50 [1]: 3.3 µM | IC50 [2]: 10 µM | IC50 [3]: > 100 µM | IC50 [4]: > 250 µM | IC50 [5]: > 250 µM | EC50 at 48 h [6]: 18 µM | EC50 at 48 h [7]: 14 µM | IC50 [8]: > 63 µM

CCCS(=O)(=O)Nc1ccc(-c2nc3cc(NS(=O)(=O)CCC)ccc3o2)cc1
EC50 [1]: 18 µM | IC50 [2]: > 100 µM | IC50 [3]: > 100 µM | IC50 [4]: > 250 µM | IC50 [5]: > 250 µM | EC50 at 48 h [6]: > 100 µM | EC50 at 48 h [7]: > 100 µM | IC50 [8]: > 63 µM
